Experimental data as given in publication PMC5321741, “Arylmethylamino steroids as antiparasitic agents” (Nature Communications, 2017).
Read-outs that look alike come from different tables or passages of the source.

Experiments:
plasma stability = format: in vitro ADME; conditions: for remaining at 3 h: plasma, read-out: Plasma Stability % remaining after 3 h
Description: (§1) Pharmacokinetic data were obtained for compound 1o at the Sanford-Burnham Medical Research Institute according to established procedures. Compound solubility in an aqueous solution was measured using an automated kinetic solubility method. The concentration of the compound in a saturated pH-buffered aqueous solution was determined via UV absorbance (250–498 nm) and compared with the spectra of a precipitation-free reference solution. The plasma stability of the compound was determined at a single concentration using species-specific plasma. The percentage of parent compound remaining after 3 h was determined via LC-MS/MS. The percentage of compound 1o bound to plasma proteins was determined through rapid equilibrium dialysis and quantified via LC-MS/MS. Metabolic stability of the compound was determined at a single concentration using species-specific liver microsomes that contained cytochrome P450s, flavin-monooxygenases, carboxyl-esterases, epoxide hydrolases, and other drug-metabolizing enzymes. The quantification was carried out via LC-MS/MS. Membrane permeability of compound 1o was measured using an in vitro model for the passive transport from the gastrointestinal tract into the blood system. A double-sink parallel artificial membrane permeability assay PAMPA, in a 96-well format was employed.

[1] = PAMPA membrane permeability; format: in vitro ADME
Description: as §1

[2] = test system: hGrx1-roGFP2 in P. falciparum 3D7; test: cytosolic glutathione redox sensor in parasites; format: cell-based, Plasmodium falciparum; conditions: for oxidizing effect, change of 405/488 nm fluorescence ratio: 4 h
Description: To further study the mechanism of action of the steroid compounds and evaluate the potential involvement of redox stress, compound 1o was tested in cell culture on the chloroquine-sensitive P. falciparum 3D7 strain expressing the cytosolic glutathione redox sensor hGrx1-roGFP2 (Supplementary Note 2). […]
signals at 405/475 nm were calculated and plotted against time and/or concentration of compound 1o or redox active compounds. Data from three independent experiments were […]
100 µM for 4 h and 24 h incubations. Transfection of the Pf3D7 strain with the redox sensor was carried out, and the parasites were cultured as described under constant drug pressure with 5 nM WR99210 (Jacobus Pharmaceuticals, New Jersey, USA).45,46 P. falciparum trophozoites were enriched via magnet separation.47 Parasitemia was counted by using Giemsa-stained blood smears. The IC50 of compound 1o on P. falciparum 3D7 asexual blood stages was verified to be about 5 nM in an additional 72 h [3H] incorporation assay45 directly before the experiment. The effect of compound 1o on P. falciparum was investigated in 4 h and 24 h incubations. For 4 h experiments, trophozoite stage parasites (26-30 h post invasion) of 3D7[hGrx1-roGFP2] (6-8% parasitemia) were magnetically enriched (Miltenyi Biotec, Germany), counted by using the improved Neubauer hemocytometer (Brand GmbH, Germany), and returned to cell culture (at 0.5 x 10^6 trophozoites/µl) for at least 1 h to recover.
1.0 x 10^6 cells in 100 µl cell culture medium were placed into LoBind tubes (Eppendorf) for 4 h incubation experiments. The parasites were treated with compound 1o at 50 x, and 100 x IC and with mefloquine (MQ) as a standard antimalarial drug at 1 µM (IC = 8 nM)45 for 4 h […]
for 15 min at 37 °C. For 24 h experiments, a 5 ml culture (6-8% parasitemia) of ring stage parasites (6-10 h post invasion) was treated with compound 1o at 4 x, 10 x, 20 x IC50 and with 100 nM MQ. Prior to enrichment, cysteines were blocked with 2 mM NEM. For 4 h and 24 h experiments, cells were washed after incubation with pre-warmed Ringer’s solution […]
Hepes, 1 mM NaH2PO4, pH 7.4) and were seeded onto poly-L-lysine-coated µ-slides VI (Ibidi, Martinsried, Germany). A Leica confocal system TCS SP5 inverted microscope equipped with the objective HCX PL APO 63.0x1.30 GLYC 37 °C UV connected to a 37 °C temperature chamber was used. The argon laser power was set to 20%; scanning was performed at 400 Hz frequency and at a 512 × 512 pixel resolution. The smart gain and […]
smart offset were 950 V and -0.9%, respectively. With a sequential scan, we excited the sensor at 405 nm and at 488 nm and detected emissions at 500-550 nm. Laser intensity for both lines was adjusted to match the full dynamic range of the probe to the dynamic range of the detector (405 nm: 12%, 488 nm: 4%). Autofluorescence images were simultaneously taken at ex 405 nm / em 430-450 nm and individually defined together with the background for every image, but no fluorescence signal could be detected. All experiments included non- […]
and 10 mM DTT (2 min incubation), respectively, prior to blocking with NEM. Only parasites showing fluorescent signals at both 405 and 488 nm excitation and an intact host cell were chosen for analysis. Each experiment was carried out three times. At least 10 parasites were analyzed, resulting in at least 30 experimental values per incubation. The Leica LAS AF Lite software for fluorescence analysis was used. The 405/488 nm ratio was calculated. The obtained ratio values were normalized to the control ratio value, which was set to 100. The graphs were plotted using the GraphPad Prism 5 software (San Diego, CA, USA). One way-ANOVA test with 95% confidence intervals with the Dunnett’s Multiple Comparison Test was applied for statistical analysis of significance (*, p < 0.05; **, p < 0.01; ***, p < 0.001). […]
with 1 µM MQ. 24 h incubation (Supplementary Figure 8 panel B) with compound 1o resulted in a higher increase of the fluorescence ratio in a concentration-dependent manner. […]

## COc1ccc2c(c1)CCC1C2CC[C@@]2(C)C1CC[C@H]2NCc1cc2ccccc2cc1O (stereo partly shown) [1o]
Plasma stability; Human
  Plasma Stability % remaining after 3 h: 62%
Plasma stability; Mouse
  Plasma Stability % remaining after 3 h: 58%
Plasma stability; human
  remaining at 3 h: 62.5%
Plasma stability; mouse
  remaining at 3 h: 58.9%
[1]; Donor pH 5.0, Acceptor pH 7.4
  PAMPA Pe: 0 ×10⁻⁶ cm/s
[1]; Donor pH 6.2, Acceptor pH 7.4
  PAMPA Pe: 0 ×10⁻⁶ cm/s
[1]; Donor pH 7.4, Acceptor pH 7.4
  PAMPA Pe: 0 ×10⁻⁶ cm/s
[1]; all 3 pH levels, compound well embedded in the filter membrane
  PAMPA permeability in words: very poorly permeable at all 3 pH levels tested
[2]; 20 nM (4 x IC50), 24 h
  change of 405/488 nm fluorescence ratio: 1.8 fold
[2]; 100 nM, 24 h
  change of 405/488 nm fluorescence ratio: 2.4 fold
[2]; 250 nM (50 x IC50)
  oxidizing effect, change of 405/488 nm fluorescence ratio: approximately 1.5 fold
[2]; 500 nM (100 x IC50)
  oxidizing effect, change of 405/488 nm fluorescence ratio: approximately 1.5 fold
[2]; 20, 50 and 100 nM, 24 h, not significant
  redox ratio of the probe: dose-dependent increase of the redox ratio of the probe
